ChEMBL document CHEMBL1201862, “PubChem BioAssay data set” (2004)
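Values below derive from 48-hour exposures of cells grown in 96-well plates, with endpoints linearly interpolated between the two concentrations bracketing the appropriate inhibition level. GI50 is the concentration that inhibits growth by half.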 Activity calls are given as the source filed them. No stated cut-off is given here; in the data, active = GI50 up to about 1.1 µM and inactive = higher.

Assays:
Assay in all cases: NCI anticancer screen, dose series, 48 h
[1] = system: SF-268
[2] = system: OVCAR-5
[3] = system: HL-60
[4] = system: NCI-H460
[5] = system: SNB-19
[6] = system: HCC 2998
[7] = system: CCRF-CEM
[8] = system: HOP-92
[9] = system: EKVX
[10] = system: NCI-H522
[11] = system: RXF 393
[12] = system: OVCAR-3
[13] = system: IGROV-1
[14] = system: SW-620
[15] = system: A498
[16] = system: K562
[17] = system: OVCAR-8
[18] = system: SK-OV-3
[19] = system: NCI-H226
[20] = system: U-251

| SMILES | GI50 [1] | GI50 [2] | GI50 [3] | GI50 [4] | GI50 [5] | GI50 [6] | GI50 [7] | GI50 [8] | GI50 [9] | GI50 [10] | GI50 [11] | GI50 [12] | GI50 [13] | GI50 [14] | GI50 [15] | GI50 [16] | GI50 [17] | GI50 [18] | GI50 [19] | GI50 [20] |
| --- | --- | --- | --- | --- | --- | --- | --- | --- | --- | --- | --- | --- | --- | --- | --- | --- | --- | --- | --- | --- |
| CC(=O)Nc1ccc(/C=C/c2ccc(NC(=O)Nc3ccc(/C=C/c4ccc(NC(C)=O)cc4S(=O)(=O)O)c(S(=O)(=O)O)c3)cc2S(=O)(=O)O)c(S(=O)(=O)O)c1 | > 100 µM (inactive) | > 100 µM (inactive) | 60.1 µM (inactive) | > 100 µM (inactive) | > 100 µM (inactive) | 98.6 µM (inactive) | > 100 µM (inactive) | 43.1 µM (inactive) | > 100 µM (inactive) | > 100 µM (inactive) | > 100 µM (inactive) | > 100 µM (inactive) | > 100 µM (inactive) | > 100 µM (inactive) | > 100 µM (inactive) | > 100 µM (inactive) | > 100 µM (inactive) | > 100 µM (inactive) | 39.8 µM (inactive) | > 100 µM (inactive) |
| CC(=O)OC1CC2(O)C(CCC3(C)C(c4ccc(=O)oc4)CCC32O)C2(C)CCC(O)C=C12 (configuration not stated) | 0.0375 µM (active) | 0.104 µM (active) | 0.00455 µM (active) | 0.00454 µM (active) | 0.0466 µM (active) | 0.0644 µM (active) | – | 0.0604 µM (active) | 0.0139 µM (active) | 0.00174 µM (active) | 0.0375 µM (active) | 0.00469 µM (active) | 0.0195 µM (active) | 0.0375 µM (active) | 0.0428 µM (active) | 0.0375 µM (active) | 0.0152 µM (active) | 0.0336 µM (active) | 0.048 µM (active) | 0.0169 µM (active) |
| COc1ccc(C(=O)Cc2cc(OC)ccc2OC)cc1 | 61.4 µM (inactive) | > 100 µM (inactive) | > 100 µM (inactive) | > 100 µM (inactive) | > 100 µM (inactive) | > 100 µM (inactive) | > 100 µM (inactive) | – | > 100 µM (inactive) | 43.3 µM (inactive) | 58.9 µM (inactive) | > 100 µM (inactive) | > 100 µM (inactive) | > 100 µM (inactive) | 39.2 µM (inactive) | > 100 µM (inactive) | > 100 µM (inactive) | > 100 µM (inactive) | > 100 µM (inactive) | > 100 µM (inactive) |
| CCP(=S)(CC)CCl | – | > 100 µM (inactive) | > 100 µM (inactive) | > 100 µM (inactive) | > 100 µM (inactive) | > 100 µM (inactive) | > 100 µM (inactive) | 73.5 µM (inactive) | – | > 100 µM (inactive) | – | > 100 µM (inactive) | > 100 µM (inactive) | > 100 µM (inactive) | – | > 100 µM (inactive) | > 100 µM (inactive) | > 100 µM (inactive) | > 100 µM (inactive) | > 100 µM (inactive) |
| CN1CN(C(=O)N2CN(C)C(=O)N(C)C2)CN(C)C1=O | > 100 µM (inactive) | > 100 µM (inactive) | > 100 µM (inactive) | – | > 100 µM (inactive) | > 100 µM (inactive) | > 100 µM (inactive) | – | > 100 µM (inactive) | > 100 µM (inactive) | – | > 100 µM (inactive) | > 100 µM (inactive) | > 100 µM (inactive) | > 100 µM (inactive) | > 100 µM (inactive) | > 100 µM (inactive) | > 100 µM (inactive) | > 100 µM (inactive) | – |
| CC(=O)OC1CC[C@@]2(C)C(=CC[C@@H]3[C@@H]2CC[C@]2(C)Nc4nn(S(C)(=O)=O)cc4C[C@@H]32)C1 (some centres not stated) | – | 37.9 µM (inactive) | > 10 µM (inactive) | 18.7 µM (inactive) | 79.4 µM (inactive) | 30.4 µM (inactive) | 10.6 µM (inactive) | 49.5 µM (inactive) | – | 35.2 µM (inactive) | 18.6 µM (inactive) | 24.2 µM (inactive) | 73.6 µM (inactive) | – | > 100 µM (inactive) | 12.1 µM (inactive) | 32.5 µM (inactive) | > 100 µM (inactive) | 27.7 µM (inactive) | 36.1 µM (inactive) |
| CC(C(=O)OCc1ccccc1)N(Cc1ccccc1)Cc1ccccc1 (configuration not stated) | > 100 µM (inactive) | > 100 µM (inactive) | 21 µM (inactive) | > 100 µM (inactive) | > 100 µM (inactive) | > 100 µM (inactive) | 53.5 µM (inactive) | > 100 µM (inactive) | > 100 µM (inactive) | 29.2 µM (inactive) | 23.1 µM (inactive) | > 100 µM (inactive) | > 100 µM (inactive) | > 100 µM (inactive) | > 100 µM (inactive) | 77.8 µM (inactive) | > 100 µM (inactive) | > 100 µM (inactive) | – | 98.4 µM (inactive) |
| CC1(C)CC2(CC(C)(C)N1O)NC(=O)OC2=O | > 100 µM (inactive) | > 100 µM (inactive) | > 100 µM (inactive) | > 31.6 µM (inactive) | > 100 µM (inactive) | > 100 µM (inactive) | > 77.4 µM (inactive) | > 100 µM (inactive) | > 100 µM (inactive) | > 100 µM (inactive) | > 100 µM (inactive) | > 100 µM (inactive) | > 100 µM (inactive) | > 100 µM (inactive) | > 100 µM (inactive) | > 100 µM (inactive) | > 100 µM (inactive) | > 100 µM (inactive) | > 100 µM (inactive) | > 100 µM (inactive) |
| Cc1cc(O)nc(NN2C(Cl)C(=O)C2c2c(O)ccc3ccccc23)n1 (configuration not stated) | 23.1 µM (inactive) | 36.9 µM (inactive) | 14.1 µM (inactive) | 15 µM (inactive) | 20.7 µM (inactive) | 15 µM (inactive) | 6.76 µM (inactive) | 16.4 µM (inactive) | 43.8 µM (inactive) | – | 13.2 µM (inactive) | 13.2 µM (inactive) | 38.5 µM (inactive) | 30.2 µM (inactive) | – | 23.2 µM (inactive) | 27.4 µM (inactive) | – | 13 µM (inactive) | 21.9 µM (inactive) |
| COC(=O)C1=C(O)C(C(=O)OC)[C@@]2(O)[C@@H](C(=O)OC)[C@H](C)[C@@H](C)[C@@H]1[C@@H]2C(=O)OC (some centres not stated) | > 100 µM (inactive) | > 100 µM (inactive) | 45.7 µM (inactive) | 44.9 µM (inactive) | > 100 µM (inactive) | 37.8 µM (inactive) | 60.5 µM (inactive) | – | 52.8 µM (inactive) | 26.9 µM (inactive) | 13.2 µM (inactive) | 27 µM (inactive) | – | – | > 100 µM (inactive) | 35.6 µM (inactive) | – | 49.4 µM (inactive) | 55.8 µM (inactive) | 86.5 µM (inactive) |
| CC[C@@]1(O)C[C@H](OC2CC(N(C)C)C(OC3CC(O)C(OC4CC(O)C(O)C(C)O4)C(C)O3)C(C)O2)c2c(cc3c(c2O)C(=O)c2c(O)ccc(O)c2C3=O)[C@H]1C(=O)OC (some centres not stated) | 0.0263 µM (active) | 0.254 µM (active) | 0.0448 µM (active) | 0.00577 µM (active) | 0.0346 µM (active) | 0.1 µM (active) | < 0.0181 µM (active) | 0.0902 µM (active) | 0.0413 µM (active) | 0.0343 µM (active) | 0.0356 µM (active) | 0.0321 µM (active) | < 0.023 µM (active) | 0.00875 µM (active) | 0.0146 µM (active) | 0.0109 µM (active) | 0.00474 µM (active) | 0.0811 µM (active) | 0.0427 µM (active) | 0.084 µM (active) |
| O=C(/N=N/c1cc(Cl)ccc1Cl)NNc1cc(Cl)ccc1Cl | – | 17.6 µM (inactive) | 4.41 µM (inactive) | 17.3 µM (inactive) | > 10 µM (inactive) | 25.9 µM (inactive) | 13.6 µM (inactive) | 15.2 µM (inactive) | – | 13.2 µM (inactive) | 11.1 µM (inactive) | 16.8 µM (inactive) | 19 µM (inactive) | – | 26.9 µM (inactive) | 14.6 µM (inactive) | 26.8 µM (inactive) | 30.3 µM (inactive) | > 10 µM (inactive) | 16.7 µM (inactive) |
| Cc1ccc(C(=O)Nc2ncn(C3CC(O)C(CO)O3)c(=O)n2)cc1 (configuration not stated) | > 100 µM (inactive) | > 100 µM (inactive) | – | > 100 µM (inactive) | 12.2 µM (inactive) | > 100 µM (inactive) | > 100 µM (inactive) | > 100 µM (inactive) | > 100 µM (inactive) | > 100 µM (inactive) | > 100 µM (inactive) | > 33.3 µM (inactive) | > 100 µM (inactive) | > 100 µM (inactive) | > 100 µM (inactive) | > 100 µM (inactive) | > 100 µM (inactive) | > 100 µM (inactive) | > 100 µM (inactive) | > 100 µM (inactive) |
| Cc1ccc(C(=O)N/N=C(\N=N\c2cccc(C)c2)c2ccc(N(CCC#N)CCC#N)cc2C)cc1 | 59.6 µM (inactive) | > 100 µM (inactive) | > 100 µM (inactive) | 52.7 µM (inactive) | > 100 µM (inactive) | > 100 µM (inactive) | 59.8 µM (inactive) | 34 µM (inactive) | 95.3 µM (inactive) | – | 89.1 µM (inactive) | 78.9 µM (inactive) | 34.3 µM (inactive) | 50.5 µM (inactive) | 73.3 µM (inactive) | > 100 µM (inactive) | 43.3 µM (inactive) | > 100 µM (inactive) | 55.2 µM (inactive) | 47 µM (inactive) |
| CCOC(=O)C1=NN(c2ccccc2)C2=CC(C)=NN(C)C(=S)N21 | > 100 µM (inactive) | > 100 µM (inactive) | > 100 µM (inactive) | 48.5 µM (inactive) | > 100 µM (inactive) | > 100 µM (inactive) | > 100 µM (inactive) | > 100 µM (inactive) | > 100 µM (inactive) | > 100 µM (inactive) | > 100 µM (inactive) | > 100 µM (inactive) | > 100 µM (inactive) | > 100 µM (inactive) | – | > 100 µM (inactive) | > 100 µM (inactive) | > 100 µM (inactive) | – | > 100 µM (inactive) |
